Patent US20050008684A1, “Method of treatment for acne, rosacea and ulcers with taurolidine and/or taurultam in a pharmaceutical composition” (priority 2003, published 2005)

How the values were obtained:
skin sensitization = assay: Magnusson & Kligman-Test; assay type: in vivo
Staphylococcus aureus = conditions: cited from earlier work
[1] = system: acne, inflamed lesions in the skin; assay: topical treatment of acne; assay type: in vivo, human
[2] = system: impetiginous atopical eczema on the hands and feet; assay: case treatment of atopic eczema, topical; assay type: in vivo, human; conditions: same patient, before taurolidine treatment
Description: The patient was released with a prescription to apply Triclosan in a Dermatop-base cream upon need. The pustules were treated with methylrosaniline chloride solution. […] Further treatments included application of Dermatop-cream, Polyvidon-Iodine solution, crystal violet solution, and Nystatin-suspension. […] Treatment was then continued for another week at reduced frequency application such as once daily.

| Compound | sensitization classification (skin sensitization) | minimal threshold of inhibitory concentration (Staphylococcus aureus) [mg/mL] | local irritations and/or allergies ([1]; 2% taurolidine gel or emulsion on skin of affected patient) | side effects such as flaking, stinging and itching ([1]; 2% taurolidine gel or emulsion, topical) | reduction of inflamed lesions in the skin ([1]; hydroxyethylcellulose gel (or W/O or O/W emulsion) with 2% taurolidine, several days after application) [%] | condition under earlier therapy of atopical eczema [2] |
| --- | --- | --- | --- | --- | --- | --- |
| O=S1(=O)CCN(CN2CCS(=O)(=O)NC2)CN1 [taurolidine, 4,4′-methylenebis-(1,2,4-thiadiazine-1,1-dioxide)] | non-sensitizing agent | 0.3 to 0.6 | no local irritations and/or allergies could be observed | No side effects | 50 |  |
| COCC1=C(C(=O)O)N2C(=O)[C@@H](NC(=O)/C(=N\OC)c3csc(N)n3)[C@H]2SC1 [Cefpodoxim] |  |  |  |  |  | improved somewhat |
| C[C@]12C=CC(=O)C=C1CC[C@@H]1[C@@H]2[C@@H](O)C[C@@]2(C)[C@H]1CC[C@]2(O)C(=O)CO [Prednisolon] |  |  |  |  |  | the atopical eczema was not completely gone |
